{
  "source": "patent US20030162825A1",
  "about": "“D-amino acid oxidase inhibitors for learning and memory” (SEPRACOR INC., priority 2001, published 2003)",
  "key": {"rats": {"tested_on": "rats", "assay": "Morris water maze test (learning and memory)", "assay_type": "in vivo, rat", "experimental": "Training was conducted in a circular pool (160 cm in diameter) filled with water to a depth of 35 cm. The walls of the pool were blue, and the water was made opaque by the addition of approximately 20 ml of white, non-toxic water-based food dye. Water temperature was maintained at approximately 25° C.\nDuring training, rats learn to swim to a submerged platform (approximately 2.5 cm below the surface) constructed of Nalgene with a roughened Plexiglas surface. The surface diameter was approximately 16 cm and its height was approximately 27.5 cm. Experiments were conducted in a darkened room. Lighting of the water-maze was arranged so that illumination of the pool was dim and equivalent in all quadrants. Both acquisition data and retention probe data were collected using Videomex Morris maze software and interface (Columbus Instruments, Columbus, Ohio). The apparatus monitored the animal's progress using a video camera connected to a monitor and a video analysis computer that was outside the view of the swimming animal. Latencies to escape to the platform, the animal's swimming route, and its time spent in the platform-containing quadrant were measured.\nMorris maze acquisition training (learning) consisted of 18 trials presented in 6 blocks of 3 trials each. During all training and testing procedures, the experimenter was blind to the animal group membership. To orient the animals to the task, training began with placement of the animal's front paws onto the platform followed by 10 sec of the animal's standing on the platform. Immediately after the third placement, training commenced with the first block of 3 trials. The platform was placed in the center of the southwest quadrant for all training. On each trial, rats were placed into the pool randomly at one of 6 different angular directions. […] Latency to escape to the platform was measured for each trial. […]\n[…] The amount of time spent in the quadrant previously occupied by the platform and number of crosses over the previous position of the platform were recorded for each animal. […]"}, "[1]": {"target": "T1, Porcine kidney D-amino acid oxidase (Sus scrofa, UniProt P00371)", "T1 construct": "purchased Sigma Company A-5222; host or cells: porcine kidney", "T1 sequence (P00371 whole entry)": "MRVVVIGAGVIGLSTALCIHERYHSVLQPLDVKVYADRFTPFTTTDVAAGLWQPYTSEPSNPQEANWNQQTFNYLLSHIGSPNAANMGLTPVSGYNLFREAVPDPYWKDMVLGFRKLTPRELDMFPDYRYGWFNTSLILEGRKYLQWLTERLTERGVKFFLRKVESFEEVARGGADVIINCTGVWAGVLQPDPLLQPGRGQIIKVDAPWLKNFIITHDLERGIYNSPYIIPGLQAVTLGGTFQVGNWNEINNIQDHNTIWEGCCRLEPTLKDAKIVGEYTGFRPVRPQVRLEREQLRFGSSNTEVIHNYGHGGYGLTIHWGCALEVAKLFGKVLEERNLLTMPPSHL", "assay": "D-amino acid oxidase inhibition assay (Amplex Red Hydrogen Peroxide Assay Kit)", "assay_type": "biochemical", "conditions": "D-serine substrate, reaction time five minutes; for inhibition at 40 µg/mL: inhibitor at 40 μg/mL", "experimental": "A working solution was prepared by mixing: sodium phosphate buffer (8.7 ml, 0.025M, pH 7.4), D-serine solution (1.0 ml, 100 mM in water), horseradish peroxidase (0.2 ml, 200 U/ml in buffer), and Amplex™ Red solution (0.1 ml, 1 mg dye in 200 μl in DMSO (50 μM in DMSO)). A working enzyme solution was prepared by diluting a D-amino oxidase stock solution (65 U/ml) one hundred fold. The working solution (100 μl) was transferred to wells of a Microfluor B microtiter plate and a solution of the inhibitor in DMF was added.\nControl experiments were carried out using DMF in the absence of inhibitor."}},
  "note": "Entries after “also recorded” stand apart in the source; their conditions may differ.",
  "data": [
    {"compound": "O=C(O)c1cc2ccccc2[nH]1", "note": "[I-2-C, indole-2-carboxylic acid]", "values": [
      {"measurement": "retention (seconds swimming in the quadrant previously containing the escape platform)", "setting": "rats; first experiment: 200 mg/kg ip four times, one hour before first, second, fourth and sixth training period, four days after training", "result": "improved retention"},
      {"measurement": "retention in seconds", "setting": "rats; second experiment: single injection 200 mg/kg, eight days later, 200 mg/kg", "result": "improving effect on retention; also recorded: improved retention"},
      {"measurement": "retention", "setting": "rats; third experiment: single injection 200 mg/kg, first probe trial", "result": "improved retention"}
    ]},
    {"compound": "O=C(O)c1cc2ccccc2[nH]1", "note": "[compound 1]", "values": [
      {"measurement": "IC50", "setting": "[1]", "result": 2, "unit": "µM"},
      {"measurement": "inhibition at 40 µg/mL", "setting": "[1]", "result": 93, "unit": "%"}
    ]},
    {"compound": "O=C(O)c1cc2cc(O)ccc2[nH]1", "note": "[compound 2]", "values": [
      {"measurement": "inhibition at 40 µg/mL", "setting": "[1]", "result": 90, "unit": "%"}
    ]},
    {"compound": "O=C(O)c1ccc[nH]1", "note": "[compound 3]", "values": [
      {"measurement": "inhibition at 40 µg/mL", "setting": "[1]", "result": 87, "unit": "%"}
    ]},
    {"compound": "O=C(O)c1cc2cc(Cl)ccc2[nH]1", "note": "[compound 4]", "values": [
      {"measurement": "inhibition at 40 µg/mL", "setting": "[1]", "result": 86, "unit": "%"}
    ]},
    {"compound": "O=C(O)c1cc2ccccc2o1", "note": "[compound 5]", "values": [
      {"measurement": "inhibition at 40 µg/mL", "setting": "[1]", "result": 85, "unit": "%"}
    ]},
    {"compound": "Cn1c(C(=O)O)cc2ccccc21", "note": "[compound 6]", "values": [
      {"measurement": "inhibition at 40 µg/mL", "setting": "[1]", "result": 58, "unit": "%"}
    ]},
    {"compound": "COc1ccc2[nH]c(C(=O)O)cc2c1", "note": "[compound 7]", "values": [
      {"measurement": "inhibition at 40 µg/mL", "setting": "[1]", "result": 32, "unit": "%"}
    ]},
    {"compound": "O=C(O)c1ccc([N+](=O)[O-])c2c1NC(c1ccccc1)C1CC=CC21", "note": "(stereo not shown) [compound 10]", "values": [
      {"measurement": "IC50", "setting": "[1]", "result": 17, "unit": "µM"}
    ]},
    {"compound": "O=C(O)c1ccc([N+](=O)[O-])c2c1NC(c1ccc([N+](=O)[O-])cc1)C1CC=CC21", "note": "(stereo not shown) [compound 11]", "values": [
      {"measurement": "IC50", "setting": "[1]", "result": 29, "unit": "µM"}
    ]}
  ]
}
